This passage reports IC50 results from US8546375B2, “(3-(4-(aminomethyl)phenoxy or phenylthio)azetidin-1-yl)(5-phenyl-1,3,4-oxadiazol-2-yl)methanone compounds” (AstraZeneca AB, priority 2010, dated 2013).

pIC50: −log10 of the molar value. Structures can show the parent of a compound that is named as a salt.

For the first test, the target named is T1, Melanin Concentrating Hormone Receptor 1 (MCHR1) (Homo sapiens, UniProt Q99705).
T1 construct: expressed in transfected cells
T1 sequence (Q99705 whole entry): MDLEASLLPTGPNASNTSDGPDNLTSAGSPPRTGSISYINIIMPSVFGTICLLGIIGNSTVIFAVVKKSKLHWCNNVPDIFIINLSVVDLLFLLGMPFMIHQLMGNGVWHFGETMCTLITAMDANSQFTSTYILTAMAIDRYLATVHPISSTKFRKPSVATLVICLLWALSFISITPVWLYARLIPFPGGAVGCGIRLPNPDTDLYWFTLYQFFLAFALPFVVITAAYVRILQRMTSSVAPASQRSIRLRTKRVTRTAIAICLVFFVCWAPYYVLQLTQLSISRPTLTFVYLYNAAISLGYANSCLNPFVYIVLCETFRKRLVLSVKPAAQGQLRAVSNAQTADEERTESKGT
Briefly: MCHR1 Receptor Activation Assay (GTPγ^35S). It counts as biochemical. Conditions: read-out: GTPγ^35S IC50.
The pIC50 is −log10 of the IC50, conventionally taken in molar units. Consider `O=C(c1nnc(-c2ccc(Cl)cc2)o1)N1CC(Oc2ccc(CN3CCCC3)cc2)C1` [Example 1, (5-(4-Chlorophenyl)-1,3,4-oxadiazol-2-yl)(3-(4-(pyrrolidin-1-ylmethyl)phenoxy)azetidin-1-yl)methanone], for which the negative logarithm of the IC50 (pIC50) was 8.15.

For the compound `O=C(c1nnc(-c2ccccc2)o1)N1CC(Oc2ccc(CN3CCCC3)cc2)C1` [Example 3, (5-Phenyl-1,3,4-oxadiazol-2-yl)(3-(4-(pyrrolidin-1-ylmethyl)phenoxy)azetidin-1-yl)methanone], the pIC50 was 7.57.

Take `O=C(c1nnc(-c2ccc(F)cc2)o1)N1CC(Oc2ccc(CN3CCCC3)cc2)C1` [Example 4, (5-(4-Fluorophenyl)-1,3,4-oxadiazol-2-yl)(3-(4-(pyrrolidin-1-ylmethyl)phenoxy)azetidin-1-yl)methanone]: the pIC50 was 7.70.

Turning to `O=C(c1nnc(-c2ccc(C(F)(F)F)cc2)o1)N1CC(Oc2ccc(CN3CCCC3)cc2)C1` [Example 5, (3-(4-(Pyrrolidin-1-ylmethyl)phenoxy)azetidin-1-yl)(5-(4-(trifluoromethyl)phenyl)-1,3,4-oxadiazol-2-yl)methanone formate], the pIC50 was 7.82.

For `Cc1ccc(-c2nnc(C(=O)N3CC(Oc4ccc(CN5CCCC5)cc4)C3)o2)cc1` [Example 6, (3-(4-(Pyrrolidin-1-ylmethyl)phenoxy)azetidin-1-yl)(5-p-tolyl-1,3,4-oxadiazol-2-yl)methanone hydrochloride], the pIC50 was 7.72.

Regarding `COc1cc(OC2CN(C(=O)c3nnc(-c4ccccc4)o3)C2)ccc1CN1CCOCC1` [Example 7, (3-(3-Methoxy-4-(morpholinomethyl)phenoxy)azetidin-1-yl)(5-phenyl-1,3,4-oxadiazol-2-yl)methanone], the pIC50 was 7.68.

Turning to `Cc1cc(CN2CCN(C)CC2)ccc1OC1CN(C(=O)c2nnc(-c3ccccc3)o2)C1` [Example 9, (3-(2-Methyl-4-((4-methylpiperazin-1-yl)methyl)phenoxy)azetidin-1-yl)(5-phenyl-1,3,4-oxadiazol-2-yl)methanone], the pIC50 was 7.36.

For the compound `COc1ccc(-c2nnc(C(=O)N3CC(Oc4ccc(CN5CCN(C)CC5)cc4C)C3)o2)cc1` [Example 10, (5-(4-Methoxyphenyl)-1,3,4-oxadiazol-2-yl)(3-(2-methyl-4-((4-methylpiperazin-1-yl)methyl)phenoxy)azetidin-1-yl)methanone], the pIC50 was 7.39.

For the compound `Cc1ccc(-c2nnc(C(=O)N3CC(Oc4ccc(CN5CCN(C)CC5)cc4C)C3)o2)cc1` [Example 11, (3-(2-Methyl-4-((4-methylpiperazin-1-yl)methyl)phenoxy)azetidin-1-yl)(5-p-tolyl-1,3,4-oxadiazol-2-yl)methanone], the pIC50 is 7.29.

As for `COc1ccc(-c2nnc(C(=O)N3CC(Oc4ccc(CN5CCOCC5)cc4C)C3)o2)cc1` [Example 12, (5-(4-Methoxyphenyl)-1,3,4-oxadiazol-2-yl)(3-(2-methyl-4-(morpholinomethyl)-phenoxy)azetidin-1-yl)methanone], the pIC50 was 7.52.

As for `Cc1ccc(-c2nnc(C(=O)N3CC(Oc4ccc(CN5CCOCC5)cc4C)C3)o2)cc1` [Example 13, (3-(2-Methyl-4-(morpholinomethyl)phenoxy)azetidin-1-yl)(5-p-tolyl-1,3,4-oxadiazol-2-yl)methanone], the negative logarithm of the IC50 (pIC50) was 7.54.

On to `Cc1cc(CN2CCOCC2)ccc1OC1CN(C(=O)c2nnc(-c3ccccc3)o2)C1` [Example 14, (3-(2-Methyl-4-(morpholinomethyl)phenoxy)azetidin-1-yl)(5-phenyl-1,3,4-oxadiazol-2-yl)methanone], for which the pIC50 is 7.52.

With `Cc1cc(CN2CCOCC2)ccc1OC1CN(C(=O)c2nnc(-c3ccc(Cl)cc3)o2)C1` [Example 15, (5-(4-Chlorophenyl)-1,3,4-oxadiazol-2-yl)(3-(2-methyl-4-(morpholinomethyl)phenoxy)azetidin-1-yl)methanone], the pIC50 was 8.00.

Turning to `COc1ccc(-c2nnc(C(=O)N3CC(Oc4ccc(CN(C)C)cc4C)C3)o2)cc1` [Example 17, (3-(4-((Dimethylamino)methyl)-2-methylphenoxy)azetidin-1-yl)(5-(4-methoxyphenyl)-1,3,4-oxadiazol-2-yl)methanone], the pIC50 is 7.60.

Regarding `Cc1ccc(-c2nnc(C(=O)N3CC(Oc4ccc(CN(C)C)cc4C)C3)o2)cc1` [Example 18, (3-(4-((Dimethylamino)methyl)-2-methylphenoxy)azetidin-1-yl)(5-p-tolyl-1,3,4-oxadiazol-2-yl)methanone], the pIC50 is 7.60.

`Cc1cc(CN2CCCC2)ccc1OC1CN(C(=O)c2nnc(-c3ccc(Cl)cc3)o2)C1` [Example 19, (5-(4-Chlorophenyl)-1,3,4-oxadiazol-2-yl)(3-(2-methyl-4-(pyrrolidin-1-ylmethyl)phenoxy)azetidin-1-yl)methanone]: the pIC50 was 8.19.

With `COc1ccc(-c2nnc(C(=O)N3CC(Oc4ccc(CN(C)C)c(C)c4)C3)o2)cc1` [Example 20, (3-(4-((Dimethylamino)methyl)-3-methylphenoxy)azetidin-1-yl)(5-(4-methoxyphenyl)-1,3,4-oxadiazol-2-yl)methanone], the pIC50 was 7.62.

On to `Cc1ccc(-c2nnc(C(=O)N3CC(Oc4ccc(CN(C)C)c(C)c4)C3)o2)cc1` [Example 22, (3-(4-((Dimethylamino)methyl)-3-methylphenoxy)azetidin-1-yl)(5-p-tolyl-1,3,4-oxadiazol-2-yl)methanone], for which the pIC50 is 7.60.

As to `CC(=O)N1CCN(Cc2ccc(OC3CN(C(=O)c4nnc(-c5ccccc5)o4)C3)cc2)CC1` [Example 23, 1-(4-(4-(1-(5-Phenyl-1,3,4-oxadiazole-2-carbonyl)azetidin-3-yloxy)benzyl)piperazin-1-yl)ethanone], the pIC50 is 7.00.

The test is the same for the next values; noted with them: separated enantiomers of Example 84 (chiral chromatography fractions); assay not given; read-out: IC50.
On to `COc1ccc(-c2nnc(C(=O)N3CC(Oc4ccc(CN5CCC(C)(CO)C5)cc4)C3)o2)cc1` (single isomer, unassigned; (+)) [Example E2, (+)(3-(4-((3-(hydroxymethyl)-3-methylpyrrolidin-1-yl)methyl)phenoxy)azetidin-1-yl)(5-(4-methoxyphenyl)-1,3,4-oxadiazol-2-yl)methanone], for which the pIC50 was 7.62.

As to `COc1ccc(-c2nnc(C(=O)N3CC(Oc4ccc(CN5CCC(C)(CO)C5)cc4)C3)o2)cc1` (single isomer, unassigned; (-)) [Example E1, (−)(3-(4-((3-(hydroxymethyl)-3-methylpyrrolidin-1-yl)methyl)phenoxy)azetidin-1-yl)(5-(4-methoxyphenyl)-1,3,4-oxadiazol-2-yl)methanone], the pIC50 is 7.55.

The same test, now with this note: when tested in the above referenced assays (MCH binding assay; MCHR1 receptor activation assay); read-out: IC50 value.
`COc1ccc(-c2nnc(C(=O)N3CC(Oc4ccc(CN(C)C)c(OC(F)F)c4)C3)o2)cc1` [(3-(3-(difluoromethoxy)-4-((dimethylamino)methyl)phenoxy)azetidin-1-yl)(5-(4-methoxyphenyl)-1,3,4-oxadiazol-2-yl)methanone]: the negative-log IC50 (pIC50) is no more than 7.00.

Take `COCCN(CCOC)Cc1ccc(OC2CN(C(=O)c3nnc(-c4ccccc4)o3)C2)cc1` [(3-(4-((bis(2-methoxyethyl)amino)methyl)phenoxy)azetidin-1-yl)(5-phenyl-1,3,4-oxadiazol-2-yl)methanone]: the pIC50 is no more than 7.00.

As for `O=C(c1nnc(-c2ccccc2)o1)N1CC(Oc2ccc(CNC3COC3)cc2)C1` [(3-(4-((oxetan-3-ylamino)methyl)phenoxy)azetidin-1-yl)(5-sphenyl-1,3,4-oxadiazol-2-yl)methanone], the negative logarithm of the IC50 (pIC50) was no more than 7.00.
